Patent publication US8609663B2, “Compounds for modulating TLR2” (priority 2009, dated 2013)
“Also recorded” adds a separate entry of the source.

Tests used:
[1] = tested on: LCMV-induced NF-κB activity; assay: cells; format: cell-based, human; conditions: for IC50: Homo sapiens, HEK293, read-out: 50% Inhibitory Dose
[2] = tested on: TNF-α-induced NF-κB activity; format: cell-based, human
[3] = tested on: LCMV-induced IL-8 production; format: cell-based, human
[4] = tested on: TNF-α-induced IL-8 production; format: cell-based, human
[5] = tested on: TLR2; format: cell-based, human
[6] = tested on: HLA-ABC; format: cell-based, human
[7] = tested on: LCMV; format: cell-based, lymphocytic choriomeningitis virus (LCMV)
[8] = tested on: LCMV; format: cell-based, lymphocytic choriomeningitis virus (LCMV); conditions: 3.3 μM
[9] = tested on: LCMV-Arm; format: cell-based, lymphocytic choriomeningitis virus (LCMV)
[10] = tested on: IL-8 production in primary human monocytes; format: cell-based
[11] = tested on: cytokine responses in mouse primary macrophages; format: cell-based
[12] = tested on: HSV-induced NF-κB activation; assay: HSV-induced NF-κB luciferase assay in SZ10 cells; format: cell-based, human; conditions: HSV-1 7134R
[13] = tested on: Pam2CSK4 (TLR2 ligand) and LPS (TLR4 ligand) induced cytokine production; parameters: species or system C57BL/6 mice; conditions: mouse
[14] = tested on: LCMV-Arm; format: in vivo, C57BL/6 mice
[15] = tested on: HSV-1; assay: HSV-1 (VP16-GFP strain) replication in Vero cells, GFP fluorescence; format: cell-based, Herpes simplex virus 1 (HSV-1); conditions: 24 hours, dose-dependent manner
[16] = tested on: Tacaribe virus (TCRV); format: cell-based
[17] = tested on: Rift Valley Fever Virus (RVFV); format: cell-based
[18] = Preliminary toxicity observation in mice; conditions: injected intravenously at 16.67 mg/kg (200 μg/mouse)

In the case of `O=C(/C=C/c1ccc(O)c(O)c1)OCCc1ccccc1` [CAPE, reference compound], the “LCMV-induced NF-κB activation” value [1] is reported as “effectively blocked”.

In the case of `CC1CCN(Cc2ccc(NC(=O)NCc3noc4ccccc34)cc2)CC1` [Compound 100], the “% Inhibition” value [1] is reported as 80%, the “LCMV-induced NF-κB activity” value [1] is reported as “dramatically inhibited” and the “LCMV-induced NF-κB activity and cytokine response” value [1] is reported as “specifically inhibit”. For the same compound, the IC50 [1] was 1 µM, the “TNF-α-induced NF-κB activity” value [2] was “did not affect” and the “LCMV-induced IL-8 production” value [3] was “dramatically inhibited”. For the same compound, the “TNF-α-induced IL-8 production” value [4] was “did not affect”, the “LCMV-induced enhanced expression of TLR2” value [5] was “specifically prevented” and the “TNF-α-induced expression of TLR2” value [5] was “did not affect”. The “expression of HLA-ABC” value [6] was “did not affect; also recorded: not affected”, the “LCMV replication (expression of LCMV-NP) in SZ10 cells” value [7] was “significantly inhibited; also recorded: dramatically inhibited” and the “LCMV replication in HEK cells that did not express TLR2” value [7] was “could also inhibit”. For the same compound, the “LCMV replication in Vero cells” value [8] was “significantly inhibited”, the “LCMV replication in BHK-21 cells” value [9] was “inhibited” and the “LCMV induced IL-8 production” value [10] was “significant (p<0,01 by two-tailed Student's t test) reduction”. For the same compound, the “poly IC induced production of IL-8” value [10] was “did not affect”, the “recombinant human TNF-α induced production of IL-8” value [10] was “did not affect” and the “HSV-1 induced MCP-1 production” value [11] was “efficiently blocked”. The “HSV-1 induced RANTES production” value [11] was “efficiently blocked”, the “LCMV induced production of MCP-1” value [11] was “significantly inhibited” and the “LCMV induced production of RANTES” value [11] was “significantly inhibited”. For the same compound, the “LPS induced MCP-1 production” value [11] was “inhibited”, the “Pam2CSK4 induced MCP-1 production” value [11] was “inhibited” and the “Pam2CSK4 induced RANTES in vitro in macrophages” value [11] was “inhibit”. For the same compound, the “poly IC induced production of MCP-1” value [11] was “did not affect”, the “poly IC induced production of RANTES” value [11] was “did not affect” and the “HSV-induced NF-κB activation” value [12] was “Blocks”. For the same compound, the “LPS induced IL-6 induction in vivo” value [13] was “inhibits”, the “Pam2CSK4 induced IL-6 induction in vivo” value [13] was “inhibits” and the “LPS induced IL-6 production in serum” value ([13]; in vivo, iv) was “significantly blocked”. The “LPS induced MCP-1 production in serum” value ([13]; in vivo, iv) was “significantly blocked”, the “LPS-induced RANTES production in serum” value ([13]; in vivo, iv) was “did not affect” and the “Pam2CSK4-induced RANTES production in serum” value ([13]; in vivo, iv) was “did not affect”. The “Pam2CSK4 induced IL-6 production in serum” value ([13]; in vivo, iv) was “significantly blocked”, the “Pam2CSK4 induced MCP-1 production in serum” value ([13]; in vivo, iv) was “significantly blocked” and the “levels of virus in the spleen” value ([14]; 48 h post-infection, n=8, p<0.05 vs DMSO-treated or untreated mice) was “significantly lower”. The “LCMV-induced inflammation in a mouse model” value ([14]; Example 13, i.v. 16.67 mg/kg (200 μg/mouse), serum MCP-1) was “Inhibits”, the “LCMV induced MCP-1 production in serum” value ([14]; single dose 400 μg/mouse (16 mg/kg), 18 h post-infection, vs DMSO) was “significant decrease” and the “LCMV induced type I IFN production” value ([14]; single dose 400 μg/mouse, 18 h post-infection) was “did not affect”. For the same compound, the HSV-1 replication [15] was “inhibits”, the “replication and production of TCRV” value [16] was “can inhibit” and the “activity against RVFV” value [17] was “no role”. For the same compound, the “toxic effect in mice” value [18] was “no apparent toxic effect”.

With `Cc1ccc2onc(CNC(=O)Nc3ccc(CN4CCC(C)CC4)cc3)c2c1` [Compound 101] the “% Inhibition” value [1] was 60% and the IC50 [1] was 1.6 µM.

For `Cc1ccc2onc(CNC(=O)Nc3cccc(C(F)(F)F)c3)c2c1` [Compound 102], the “% Inhibition” value [1] was 27% and the IC50 [1] was greater than 6.6 µM.

In the case of `O=C(NCc1noc2ccccc12)Nc1cccc(Cl)c1` [Compound 103], the “% Inhibition” value [1] is reported as 26% and the IC50 [1] is reported as greater than 6.6 µM.

For `COc1cccc(NC(=O)NCc2noc3ccccc23)c1` [Compound 105], the “% Inhibition” value [1] was 20% and the IC50 [1] was greater than 6.6 µM.

For `COC(=O)c1ccc(NC(=O)NCc2noc3ccccc23)cc1` [Compound 106], the “% Inhibition” value [1] was 75% and the IC50 [1] was 1.6 µM.

With `CC1CCN(Cc2ccc(NC(=O)Nc3cccs3)cc2)CC1` [Compound 107] the “% Inhibition” value [1] was 47% and the IC50 [1] was 3 µM.

In the case of `CC1CCN(Cc2ccc(NC(=O)Nc3cn(C)c(=O)c4ccccc34)cc2)CC1` [Compound 108], the “% Inhibition” value [1] is reported as 39% and the IC50 [1] is reported as greater than 6.6 µM.

In the case of `Cc1ccc2onc(CNC(=O)Nc3ccccc3N3CCN(C)CC3)c2c1` [Compound 109], the “% Inhibition” value [1] is reported as 39% and the IC50 [1] is reported as greater than 6.6 µM.

For `O=C(NCCc1ccccc1)c1nnc(-c2cccnc2)o1` [Compound 110], the “% Inhibition” value [1] was 40% and the IC50 [1] was greater than 6.6 µM.

For `COc1cc(CCNC(=O)c2nnc(-c3cccnc3)o2)cc(OC)c1` [Compound 112], the “% Inhibition” value [1] was 65% and the IC50 [1] was 0.4 µM.

With `CCc1ccc(CCNC(=O)c2nnc(-c3cccnc3)o2)cc1` [Compound 113] the “% Inhibition” value [1] was 30% and the IC50 [1] was greater than 6.6 µM.

With `O=C(NCCc1ccc(O)cc1)c1nnc(-c2cccnc2)o1` [Compound 114] the “% Inhibition” value [1] was 31% and the IC50 [1] was greater than 6.6 µM.

For `O=C(NCCc1ccc(O)c(O)c1)c1nnc(-c2cccnc2)o1` [Compound 115], the “% Inhibition” value [1] was 40% and the IC50 [1] was greater than 6.6 µM.

For `O=C(NCCc1ccc(-c2ccccc2)cc1)c1nnc(-c2cccnc2)o1` [Compound 116], the “% Inhibition” value [1] was 50% and the IC50 [1] was 0.8 µM.

With `COc1ccc(CCC(C)NC(=O)c2nnc(-c3cccnc3)o2)cc1` (centres unmarked) [Compound 117] the “% Inhibition” value [1] was 27% and the IC50 [1] was greater than 6.6 µM.

For `O=C(NCCc1cccc(Cl)c1)c1nnc(-c2cccnc2)o1` [Compound 118], the “% Inhibition” value [1] was 50% and the IC50 [1] was 3.3 µM.

With `CCOc1ccc(CCNC(=O)c2nc(-c3cccnc3)no2)cc1` [Compound 120] the “% Inhibition” value [1] was 75%, the “LCMV-induced NF-κB activity and cytokine response” value [1] was “specifically inhibit” and the IC50 [1] was 0.8 µM.

With `O=C(NCc1cccnc1)c1ccc(CSCc2cccc(F)c2)o1` [Compound 121] the “% Inhibition” value [1] was 60%, the “LCMV-induced NF-κB activity and cytokine response” value [1] was “specifically inhibit” and the IC50 [1] was 0.8 µM.

In the case of `O=C(COCc1cc(-c2ccco2)on1)Nc1cccnc1` [Compound 122], the “% Inhibition” value [1] is reported as 50%, the “LCMV-induced NF-κB activity and cytokine response” value [1] is reported as “specifically inhibit” and the IC50 [1] is reported as 3.3 µM. The “Pam2CSK4 induced RANTES in vitro in macrophages” value [11] was “inhibit”.

In the case of `O=C(CCS(=O)(=O)c1nc(-c2ccc3c(c2)OCO3)cc(C(F)(F)F)n1)Nc1ccc(OC(F)(F)F)cc1` [Compound 125], the “% Inhibition” value [1] is reported as 60%, the “LCMV-induced NF-κB activity and cytokine response” value [1] is reported as “specifically inhibit” and the IC50 [1] is reported as 0.8 µM.

For `COc1ccc(C2C3=C(CCCC3=O)Nc3[nH]nc(-c4ccc(Cl)cc4)c32)cc1OC` (centres unmarked) [Compound 132], the “% Inhibition” value [1] was 75%, the “LCMV-induced NF-κB activity and cytokine response” value [1] was “specifically inhibit” and the IC50 [1] was 0.8 µM.

With `O=C1CC(c2ccc(F)cc2)CC2=C1C=Nc1ccccc1N2` (centres unmarked) [Compound 133] the “% Inhibition” value [1] was 60%, the “LCMV-induced NF-κB activity and cytokine response” value [1] was “specifically inhibit” and the IC50 [1] was 0.8 µM.

With `O=C(CN(C1=NC2CS(=O)(=O)CC2S1)c1ccc(F)cc1)Nc1ccccc1C(F)(F)F` (centres unmarked) [Compound 134] the “% Inhibition” value [1] was 50%, the “LCMV-induced NF-κB activity and cytokine response” value [1] was “specifically inhibit” and the IC50 [1] was 1.6 µM.

In the case of `O=C(Nc1cccnc1)c1ccc(NC(=O)C2OCCc3ccccc32)cc1` (centres unmarked) [Compound 135], the “% Inhibition” value [1] is reported as 60%, the “LCMV-induced NF-κB activity and cytokine response” value [1] is reported as “specifically inhibit” and the IC50 [1] is reported as 0.8 µM.

With `COc1cc(/C=C/C(=O)CC(=O)/C=C/c2ccc(O)c(OC)c2)ccc1O` [Curcumin, reference compound] the “LCMV-induced NF-κB activation” value [1] was “effectively blocked”.

In the case of `C=C1C(=O)O[C@@H]2C[C@@H](C)[C@@H]3C=CC(=O)[C@@]3(C)[C@@H](O)[C@H]12` [Helenalin, reference compound], the “LCMV-induced NF-κB activation” value [1] is reported as “effectively blocked”.

With `CC(C)[C@]12O[C@H]1[C@@H]1O[C@]13[C@]1(O[C@H]1C[C@H]1C4=C(CC[C@@]13C)C(=O)OC4)[C@@H]2O` [Triptolide, reference compound] the “LCMV-induced NF-κB activation” value [1] was “effectively blocked”.
